row,SMILES,melting point [°C]
1,c1ccc(-c2nnc(Nc3ccc4c(c3)ncn4-c3ccccc3)c3ccccc23)cc1,227 to 229
2,Cc1ccc(N2C(=O)C(O)=C(C(=O)c3ccc(OC(F)(F)F)cc3)C2c2ccc(C(C)C)cc2)nn1 (stereo not drawn),269
3,O=C(Nc1ccc(Oc2ccnc(NC3CCS(=O)(=O)C3)n2)c2ccccc12)c1cc(F)cc(N2CCOCC2)c1 (stereo not drawn),150 to 151
4,O=[N+]([O-])c1ccc(F)cc1CS(=O)(=O)c1cccc2ccccc12,155 to 160
5,N#CCc1ccc(CCOc2ccc([N+](=O)[O-])cc2)nc1,94 to 95
6,C#CCc1c(C)nc2c(OCc3ccccc3)cccn12,112
7,CC1CC(=O)NN=C1c1cc2cc(O)c(O)cc2s1 (stereo not drawn),> 270
8,Cc1c(-c2cccnc2)ccc2c(=O)c(C(=O)O)cn(C3CC3)c12,247
9,O=C1N(CCN(c2ccccn2)c2ccccn2)c2ccccc2C12COc1cc3c(cc12)OCO3 (stereo not drawn),165 to 167
10,CC(=O)CC(=O)c1cc(Cl)c(Cl)cc1O,134 to 135
11,O=C(O)[C@H]1CCCN1C(=O)CCCc1ccccc1,86 to 87.5
12,O=C(O)Cn1c(=O)c(=O)[nH]c2cc([N+](=O)[O-])c(Cl)cc21,> 280
13,CCCCCC(C)Nc1nnc(-c2cccc(Oc3ccc(C(C)(C)C)cc3)c2)s1 (stereo not drawn),115 to 116
14,COc1ccc(S(=O)(=O)Nc2c(Cl)ncnc2Nc2ccccc2)cc1,174 to 175
15,CC(C)OCC(COC(C)C)OCn1cnc2cnc(N)nc21,89 to 90
16,CC(O)(Cn1ccnc1)c1ccc2c(c1)Cc1ccccc1-2 (stereo not drawn),183 to 184
17,c1ccc(-c2cccc3c4c([nH]c23)CCNCC4)cc1,143 to 174
18,O=C(NCc1ccccn1)Nc1cc(N2CC(COc3ccccc3)OC2=O)ccn1 (stereo not drawn),155 to 156
19,CCNC1=NS(=O)(=O)c2sc(Cl)cc2N1,271 to 274
20,COC(=S)c1nc(Br)nc(C)c1Cl,105 to 106
21,COc1ccc2[nH]c(C)c(C=O)c2c1,190 to 191
22,O=C(NCc1ccccc1)c1ccnc(-n2ccc(O)cc2=O)c1,102 to 105
23,CN1CCN(c2ccc(S(=O)(=O)Oc3cccc([N+](=O)[O-])c3)cc2)C1=O,167 to 169
24,COC(=O)N(C)n1c(C)nc(N2CCc3ccccc3CC2)c(C#N)c1=O,120 to 122
25,COC(=O)c1cc2ccc(N3CCOCC3)cc2c2c1C=CC(c1ccc(OC)cc1)(c1ccc(OC)cc1)O2,154 to 155

row,SMILES,melting point [°C]
1,CCOC(=O)c1sc(NC(=O)c2ccc(C#N)cc2)nc1C,293 to 295
2,O=CC1C(=O)CCC(c2ccccc2)(c2ccccc2)C1C[N+](=O)[O-] (stereo not drawn),188
3,CC(C)(C)C(=O)OCOC(=O)c1c2n(c3cc4c(cc3c1=O)OCO4)CCS2,229 to 230
4,CCn1ccc(Nc2cc(Cl)nn(C)c2=O)n1,173 to 175
5,CC(C)(C)OC(=O)N[C@@H](Cc1ccccn1)C(=O)NCC(=O)c1ccc(-c2ccccc2)cc1,129 to 132
6,O=C(O)C=C1SC(Nc2c(Cl)cccc2Cl)=NC1=O,> 230
7,CS(=O)(=O)c1ccc(Oc2cc(OCc3ccccc3)c3[nH]c(-c4ncc(CO)s4)cc3c2)cc1,125 to 126
8,CC(C)(C(=O)OCC(=O)c1ccccc1)n1c(=O)[nH]c2cc(Cl)ccc2c1=O,203 to 204
9,c1cc(OCC2CCCCC2)ccc1Cc1nnn[nH]1,156 to 158
10,CC(C)SC[C@@H](C[C@H](O)[C@H](CC1CCCCC1)C(=O)OC(C)(C)C)C(C)C,107 to 108
11,CC(=O)NC1CCCN(c2c(F)cc3c(=O)c(C(=O)O)cn(C4CC4)c3c2F)C1 (stereo not drawn),280 to 282
12,CN(C)CCn1c(=O)c2cccc(N)c2c2cnc3cc4c(cc3c21)OCO4,223 to 224
13,COc1cc(C(O)C#Cc2cnc(N)nc2N)cc(OC)c1OC (stereo not drawn),203 to 205
14,O=C(Oc1ccccc1)c1ccc2c(c1)S(=O)(=O)NCN2C1CC1,160 to 162
15,NC(=O)CCc1ccncc1,164 to 166
16,CCOc1ccc(C(=O)CCC(=O)Nc2cn(Cc3ccccc3)nc2-c2ccccc2)cc1,138 to 141
17,CCOC(=O)CCCn1c(=O)c2sc(N)nc2n(C)c1=O,170 to 171
18,COC(=O)c1[nH]c(=O)n(C(=O)NCCCN2CCC(C(=O)OC)(c3ccccc3)CC2)c1-c1ccc(F)c(F)c1,134 to 136
19,C=CCc1c(OC)cc(Cc2cnc(N)nc2N)cc1OC,185 to 187
20,O=C(O)CCCc1cc2nc(Cl)ccc2n1S(=O)(=O)c1ccc2ncsc2c1,178
21,CN(C)S(=O)(=O)c1cccc2c1Sc1ccc(O)cc1N2,208 to 210
22,COCCO[C@@H]1c2ccn3c(-c4ccccc4)c(C)nc3c2N[C@H](c2ccccc2)[C@H]1O,190 to 192
23,Cc1c[nH]c2ccc(O)cc12,116
24,CCOC(=O)C(=O)c1ccc(OCCCCC(=O)c2cc(C(C)(C)C)c(O)c(C(C)(C)C)c2)cc1,95 to 96
25,CC(C)N(C(=O)n1oc(=O)n(C)c1=O)c1ccc(Cl)cc1,121 to 123

row,SMILES,melting point [°C]
1,Cc1ccc2c(c1)CN(C(=O)NCCc1ccc(S(=O)(=O)NC(=O)NC3CCCCC3)cc1)C2=O,216 to 218
2,C=C(C(=O)c1ccc(Cl)cc1)c1ccc(Cl)cc1Cl,90 to 93
3,O=C(NCCCCN1CCC(c2ccc3c(c2O)CCCC3)CC1)c1ccc(-c2ccc(C(F)(F)F)cc2)cc1,220 to 222
4,CC(C)CC(CS)C(=O)Nc1cccc(C(=O)O)c1 (stereo not drawn),> 200
5,O=[N+]([O-])c1ccc(CCCCCCCCCCCCCCOCCCCCCCCCCCCCCc2ccc([N+](=O)[O-])cc2)cc1,57 to 60
6,O=C(C=CC(=O)Nc1ccccc1)NCc1cc(Br)cc2[nH]c(=O)c(=O)[nH]c12,> 250
7,COc1ccc(C2(c3ccc(OC)cc3)Nc3ccc(-c4ccc5[nH]cnc5c4)cc3N2)cc1,267 to 270
8,Cc1cc(C)c(C=O)c(O)c1,46 to 48
9,CC12CCC(C1)C(C)(C)C2(S)CCO (stereo not drawn),55 to 60
10,NCc1[nH]c2cc(Br)c(Cl)cc2c1-c1ccccc1,162 to 163
11,COC(=O)CN1CCN(C)c2cc(Nc3ncc(Cl)c(Nc4ccccc4NS(C)(=O)=O)n3)ccc2C1,106 to 124
12,CC(C)(CO)NC(=O)c1ccncc1C1=CCCc2ccccc21,157
13,Fc1ccc(F)c(-n2nnc3cccnc32)c1,140
14,O=C1N(CC2CCCO2)c2ccc(F)cc2C12COc1cc3c(cc12)CCO3 (stereo not drawn),167 to 169
15,NC(=O)C(N)N=Nc1ccccc1C(=O)c1ccccn1 (stereo not drawn),210 to 212
16,O=c1[nH]c2ccc(C(O)CCN3CCC(Cc4ccccc4)CC3)cc2[nH]1 (stereo not drawn),240 to 244
17,COc1cc(C(C)C)ccc1C1(O)C(=O)c2ccc(N)c(NC(C)=O)c2C1=O (stereo not drawn),124 to 131
18,O=C(Nc1ccccc1)N1CCN2C(=O)OC(c3ccccc3)(c3ccccc3)C2C1 (stereo not drawn),117 to 118
19,CS(=O)(=O)Nc1ccc(N2CCN(c3cc([N+](=O)[O-])ccn3)CC2)cc1,182 to 183
20,N#CCc1ccc(NC(=O)C(F)(F)C(F)(F)C(F)(F)C(F)(F)F)cc1,126 to 128
21,O=C1CCCc2cc(OCc3ccccc3)ccc21,95 to 97
22,COc1cc(C=CC=O)ccc1OCc1coc(-c2ccccc2)n1,144 to 145
23,CCOC(=O)c1cn(C2CC2)c2c(F)c(-c3cc(C)nc(C)c3)c(F)cc2c1=O,186 to 187
24,C#CCNc1nc(N(C2CC(C)(C)N(O)C(C)(C)C2)C2CC(C)(C)N(O)C(C)(C)C2)nc(N(C2CC(C)(C)N(O)C(C)(C)C2)C2CC(C)(C)N(O)C(C)(C)C2)n1,249 to 252
25,COC(=O)c1ccc2c(c1)NCc1ccccc1O2,125 to 126

row,SMILES,melting point [°C]
1,CCCCc1cn(CCCC)c(=O)n1Cc1ccc(-c2cccnc2-c2nnn[nH]2)cc1,178 to 180
2,NC(=S)C(F)(F)C[C@H]1CN(c2ccc(C3C=CS(=O)(=O)CC3)cc2)C(=O)O1 (stereo partly drawn),139 to 140
3,O=C(c1ccccc1)N1C=CC(c2c(-c3ccc(F)cc3)nc3n2CCS3)C=C1,188 to 189
4,Cc1cccc2c1SC(C(F)(F)F)C(C(=O)O)=C2 (stereo not drawn),224 to 225
5,CCOC(=O)Nc1nc(-c2ccccc2)c(-c2nc3ccccc3c(=O)n2-c2ccc(C)cc2)s1,> 275
6,Nc1cc(OCC(O)CO)nc(N)n1 (stereo not drawn),160
7,C[C@@H]1[C@H](c2ccccc2)OC(=O)N1C(=O)CCC(F)(F)F,93 to 95
8,CCCCCCOc1c(C=O)ccc2c1C=CC(C=O)(OCCCCCC)C2 (stereo not drawn),50 to 52
9,O=CC(=Cc1ccccc1Cl)C(C=O)=Cc1ccccc1Cl,177 to 178
10,Cc1cc(C2(C(F)(F)F)CC(c3ccc(Cl)cc3)=NN2C)ccc1NC(=O)c1cccc(I)c1C(=O)NC(C)C (stereo not drawn),90 to 92
11,Cc1cc2c3c(cc(Br)cc3c1Br)C(=O)N(O)C2=O,320 to 323
12,Cc1csc(C(=O)OC(C)C)c1S(=O)(=O)Cl,58
13,O=Cc1c(F)cccc1Sc1ccc(F)cc1,94 to 97
14,CCOC(=O)Cc1nc(-c2ccc(Cl)cc2)oc1C,69 to 70
15,CCC1CC2=CC(=O)CCC2C2CCC3(C)C(O)CCC3C12 (stereo not drawn),142 to 144
16,CCOC(=O)c1ccc(-c2ccc(-c3ccc(C(F)(F)F)cc3)n2C)cc1,150 to 151
17,COc1cc(C)c(C)[nH]c1=O,215 to 219
18,O=C(CSc1ccc(C(F)(F)F)cc1C(=O)O)c1ccccc1,128 to 130
19,N=C(NS(=O)(=O)C=Cc1ccccc1)c1ccccc1,192 to 194
20,Cc1c(CNC2CCCC2)[nH]c2c(C)c(NC(=O)c3ccc(OC[C@@H]4CCCO4)cc3)ccc12,107 to 109
21,CCN1c2ncccc2C(=O)Nc2c1nc(N(C)C)c(Br)c2C,184 to 186
22,CCCCN(CCCC)c1ccc(C=Cc2ccc(C=CC3=C(C#N)C(=C(C#N)C#N)OC3(C)C)s2)c(OC)c1,191 to 192
23,Nc1ncc(-c2ccccc2COC2CCCCC2)s1,102
